These results are taken from ChEMBL document CHEMBL1149405, “Cytotoxicity of novel derivatives of the spin trap EMPO” (2006).

Each structure is given as a SMILES string. Calls of active or inactive are those of the source. The rule behind the calls is not given here. Some results are limits rather than exact numbers.

Assay [1] has as its system SW480. Briefly: Decrease in cell number against human colon carcinoma SW480 cell line at 100 mM. It is filed as functional. Also on record: scale not given: the % may be the effect or the level left.
Assay [2] concerns SW480. Briefly: Decrease in cell number against human colon carcinoma SW480 cell line at 50 mM. Also on record: scale not given: the % may be the effect or the level left. Format: functional.
A further assay relates to F2000. Put plainly: LDH release per cell after 24 h with 50mM of compound F2000 fibroblasts. Format: functional, Homo sapiens.
In assay [3] the test system is SW480. Put plainly: Increase in intracellular GSH levels at 10mM expressed in […] cell line. The note with it: Homo sapiens. Format: functional, cell-based.
Assay [4] has as its system SW480. Briefly: Decrease in intracellular GSH levels at 50 mM expressed in […] cell line. It is filed as functional, Homo sapiens. Also on record: scale not given: the % may be the effect or the level left.
In a further assay the test system is SK-BR-3. Put plainly: LDH release per cell after 24 h with 50 mM of compound in SKBr3 cell line. Format: functional, Homo sapiens.
Assay [5] concerns SW480. Briefly: LDH release per cell after 24 h with 50 mM of compound in SW480 cell line. It is filed as functional, Homo sapiens.
Assay [6] relates to SW480. Briefly: Increase in intracellular GSH levels at 50 mM expressed in […] cell line. It is filed as functional, cell-based. The note with it: Homo sapiens.

Consider `CCCCOC(=O)C1(C)CCC=[N+]1[O-]` (configuration not stated), for which the Activity in the assay on SW480 [1] is recorded as above 90%; with SW480 [2] it was 10%.

With `CCCOC(=O)C1(C)CCC=[N+]1[O-]` (configuration not stated), the Activity in the assay on SW480 [1] is given as below 60%; with SW480 [2] it was 10%; with F2000, 105%; in the assay on SW480 [4] it was 38%; in the assay on SK-BR-3, 60%; in the assay with SW480 [5], 91%. Further, the result in the assay with SW480 [3] was Active.

Consider `CCC(C)OC(=O)C1(C)CCC=[N+]1[O-]` (configuration not stated), for which the Activity in the assay on SW480 [1] was above 90%; in the assay on SW480 [2], 10%; in the assay with F2000, 1211%; in the assay with SW480 [4], 67%; with SK-BR-3 it was 101%; with SW480 [5] it was 1404%.

With `CC(C)OC(=O)C1(C)CCC=[N+]1[O-]` (configuration not stated), the Activity in the assay with SW480 [1] was below 60%; with SW480 [2], 10%; in the assay with F2000, 84%; in the assay on SK-BR-3, 54%; with SW480 [5], 78%. Moreover, the result in the assay on SW480 [3] and in the assay on SW480 [6] was Active.

With `CC(C)(C)OC(=O)C1(C)CCC=[N+]1[O-]` (configuration not stated), the Activity was above 90% in the assay on SW480 [1]; 10% in the assay with SW480 [2]; 670% in the assay on F2000; 720% in the assay with SK-BR-3; 1280% with SW480 [5].
